Experimental data published in US12466839B2, “Allosteric AKT inhibitors for use in the treatment of Hereditary Hemorrhagic Telangiectasia” (VADERIS THERAPEUTICS AG, priority 2020, dated 2025).

Assays:
full length AKT2 = full length AKT2 (Homo sapiens, UniProt P31751); test: Biochemical kinase assay
Cav1.2 = Cav1.2 (Homo sapiens, UniProt Q13936); test: Cardiac ion channel profile; assay type: cell-based
KChIP2 (Homo sapiens) = test: Cardiac ion channel profile; assay type: cell-based
KCNQ1 = KCNQ1 (Homo sapiens, UniProt P51787); test: Cardiac ion channel profile; assay type: cell-based
AKT = AKT inhibition in primary lung endothelial cells with normal Eng expression (western blot); assay type: cell-based; details: Mus musculus, Endothelial cell; lung ECs from controls with normal level of Eng expression; VEGF-A stimulation
Method: Lungs from Engflox/flox pups were surgically removed, rinsed in ice-cold DMEM and endothelial cells were isolated as described in Galaris et al., (2021) “In vitro Three-Dimensional Sprouting Assay of Angiogenesis using Mouse Embryonic Stem Cells for Vascular Disease Modeling and Drug Testing” J Vis Exp (171). In summary, tissues were minced by the use of scissors, digested in DMEM-3 mg·ml-1 Collagenase A (10103586001, Roche) for 15 min at 37° C. and then filtered through a 70-μm strainer. The cell suspension was centrifuged at 200 g for 5 min and CD45+ cells were removed using Dynabeads sheep anti-Rat IgG (11035, Invitrogen) coated with rat anti-mouse CD45 antibody (550539, BD Pharmigen). Endothelial cells were sorted using Dynabeads sheep anti-Rat IgG (11035, Invitrogen) coated with rat anti-mouse PECAM1 antibody (550274, BD Pharmigen) according to the manufacturer's instructions. After washing 5 times with DMEM-0.1% BSA, cells were seeded in 6 well plates. Lung and liver ECs were maintained for two-three passages in Endothelial Cell Growth Medium 2 (C-22011, PromoCell) complemented with Fetal Calf Serum, Human Epidermal Growth Factors, Basic Fibroblast Growth Factor, Insulin like Growth Factor, Human Vascular Endothelial Growth Factor-165, Ascorbic acid, Heparin and Hydrocortisone (C-39211, SupplementPack EC GM2, PromoCell). […]

p42/p44 (MAPK pathway) = test: p42/p44 phosphorylation in primary lung endothelial cells (selectivity control); assay type: cell-based, mouse; details: control for selectivity
Method: ECs were seeded in six-well plates and allowed to grow to 90% confluence. Cells were then washed with PBS and serum starved for six hours. […] Cells were washed with cold PBS and then lysed in RIPA Buffer (50 mM Tris-HCl pH 7.4, 150 mM NaCl, 1 mM Ethylene diamine tetra-acetic acid (EDTA), 1% Triton X-100, 0.1% Sodium Dodecyl Sulfate (SDS), 0.5% deoxycholate) containing protease and phosphatase inhibitors (PPC1010, Sigma-Aldrich).
Samples were boiled for 10 min and proteins were separated on 10% acrylamide gel and transferred onto nitrocellulose membrane before blocking with 5% BSA or 5% powdered milk/Tris-buffered saline/Tween and incubated with the following primary antibodies: rabbit anti-Phospho-Akt1 (Ser473) (44-621G, Invitrogen), rabbit anti-Akt1 (2938S, Cell Signaling), rabbit anti-PhosphoSmad1/5 (Ser463/465) (9516S, Cell Signaling), rabbit anti-Smad1 (6944S, Cell Signaling), mouse anti-Phospho-p44/42 MAPK (Thr202/Tyr204) (E10) (9106S, Cell signaling), rabbit p44/42 MAPK (Erk1/2) (9102S, Cell Signaling), goat anti-Endoglin (AF1097, R&D systems) and mouse anti-β-actin (A5441, Sigma-Aldrich). Detection was achieved using HRP anti-rabbit IgG or HRP anti-mouse IgG (W4011 or W4021 respectively, Promega) or HRP anti-goat IgG (HAF017, R&D systems) followed by scanning on BIO-RAD ChemiDoc imager. […]

ADRA1D (DELTA2-79) = target: T1, ADRA1D (DELTA2-79) (Homo sapiens, UniProt P25100); test: Millipore Drug Discovery Safety and Liability Panel; assay type: cell-based
T1 construct: purchased Millipore
T1 sequence (P25100 with tags, fused parts or gaps limits assumed): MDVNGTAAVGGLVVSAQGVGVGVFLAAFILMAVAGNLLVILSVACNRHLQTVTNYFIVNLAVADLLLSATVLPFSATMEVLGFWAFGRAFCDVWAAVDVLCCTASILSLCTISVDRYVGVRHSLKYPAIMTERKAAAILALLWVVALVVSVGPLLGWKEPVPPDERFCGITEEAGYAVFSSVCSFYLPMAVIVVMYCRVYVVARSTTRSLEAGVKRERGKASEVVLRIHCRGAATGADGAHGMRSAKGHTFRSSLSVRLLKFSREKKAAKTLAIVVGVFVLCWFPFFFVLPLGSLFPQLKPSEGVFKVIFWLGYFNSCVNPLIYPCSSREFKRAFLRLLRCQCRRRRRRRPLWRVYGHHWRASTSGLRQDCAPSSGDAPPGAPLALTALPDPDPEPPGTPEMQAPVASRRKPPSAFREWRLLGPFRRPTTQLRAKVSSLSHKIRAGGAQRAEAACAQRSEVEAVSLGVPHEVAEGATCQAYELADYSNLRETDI

BLT1 = target: T2, BLT1 (Homo sapiens, UniProt Q15722); test: as above; assay type: cell-based
T2 construct: purchased Millipore

CB1 = target: T3, CB1 (Homo sapiens, UniProt P21554); test: as above; assay type: cell-based
T3 construct: purchased Millipore
T3 sequence (P21554 whole entry): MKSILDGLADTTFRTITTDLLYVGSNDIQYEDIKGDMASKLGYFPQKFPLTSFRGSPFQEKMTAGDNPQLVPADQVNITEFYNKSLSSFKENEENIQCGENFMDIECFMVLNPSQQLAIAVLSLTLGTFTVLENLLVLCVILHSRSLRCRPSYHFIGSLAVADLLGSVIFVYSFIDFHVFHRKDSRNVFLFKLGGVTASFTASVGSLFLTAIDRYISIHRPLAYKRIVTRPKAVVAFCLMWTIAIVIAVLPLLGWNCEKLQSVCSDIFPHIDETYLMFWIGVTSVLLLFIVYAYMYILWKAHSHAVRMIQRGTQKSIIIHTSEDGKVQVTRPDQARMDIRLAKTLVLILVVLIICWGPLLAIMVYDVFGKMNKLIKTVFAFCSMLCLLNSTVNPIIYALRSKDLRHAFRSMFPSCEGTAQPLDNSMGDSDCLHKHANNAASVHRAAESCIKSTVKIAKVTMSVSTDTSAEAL

CXCR1 = target: T4, CXCR1 (Homo sapiens, UniProt P25024); test: as above; assay type: cell-based
T4 construct: purchased Millipore
T4 sequence (P25024 whole entry): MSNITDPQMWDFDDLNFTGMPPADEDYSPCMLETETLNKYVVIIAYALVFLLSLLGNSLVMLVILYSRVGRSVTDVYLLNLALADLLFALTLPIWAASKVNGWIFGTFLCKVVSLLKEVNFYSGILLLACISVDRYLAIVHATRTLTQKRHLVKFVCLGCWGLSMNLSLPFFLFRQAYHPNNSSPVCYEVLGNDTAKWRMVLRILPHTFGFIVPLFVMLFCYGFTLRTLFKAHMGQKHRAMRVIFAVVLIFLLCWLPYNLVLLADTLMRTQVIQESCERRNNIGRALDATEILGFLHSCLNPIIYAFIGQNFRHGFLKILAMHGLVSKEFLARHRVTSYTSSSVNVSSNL

EP3 = target: T5, EP3 (Homo sapiens, UniProt P43115); test: as above; assay type: cell-based
T5 construct: purchased Millipore
T5 sequence (P43115 whole entry): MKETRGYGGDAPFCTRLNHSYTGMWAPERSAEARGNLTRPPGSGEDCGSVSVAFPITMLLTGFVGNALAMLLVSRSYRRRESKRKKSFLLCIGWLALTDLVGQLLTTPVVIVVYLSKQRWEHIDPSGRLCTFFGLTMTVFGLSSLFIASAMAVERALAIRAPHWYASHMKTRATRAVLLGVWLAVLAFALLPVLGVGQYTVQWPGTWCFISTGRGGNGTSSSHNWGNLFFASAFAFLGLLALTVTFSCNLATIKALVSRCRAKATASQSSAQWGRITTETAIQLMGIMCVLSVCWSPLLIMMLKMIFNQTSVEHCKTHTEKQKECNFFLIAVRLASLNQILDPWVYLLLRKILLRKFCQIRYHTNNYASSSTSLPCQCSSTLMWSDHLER

FP = target: T6, FP (Homo sapiens, UniProt P43088); test: as above; assay type: cell-based
T6 construct: purchased Millipore
T6 sequence (P43088 whole entry): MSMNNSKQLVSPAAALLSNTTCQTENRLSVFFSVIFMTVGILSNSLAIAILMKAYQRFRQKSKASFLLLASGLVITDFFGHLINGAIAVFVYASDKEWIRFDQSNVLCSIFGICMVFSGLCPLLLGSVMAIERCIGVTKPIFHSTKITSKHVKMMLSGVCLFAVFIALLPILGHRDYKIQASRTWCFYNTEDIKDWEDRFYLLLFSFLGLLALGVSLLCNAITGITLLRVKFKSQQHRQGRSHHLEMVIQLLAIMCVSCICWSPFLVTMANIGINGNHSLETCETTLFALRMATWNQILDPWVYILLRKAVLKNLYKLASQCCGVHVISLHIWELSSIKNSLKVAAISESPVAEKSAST

H2 = target: T7, H2 (Homo sapiens, UniProt P25021); test: as above; assay type: cell-based
T7 construct: purchased Millipore
T7 sequence (P25021 whole entry): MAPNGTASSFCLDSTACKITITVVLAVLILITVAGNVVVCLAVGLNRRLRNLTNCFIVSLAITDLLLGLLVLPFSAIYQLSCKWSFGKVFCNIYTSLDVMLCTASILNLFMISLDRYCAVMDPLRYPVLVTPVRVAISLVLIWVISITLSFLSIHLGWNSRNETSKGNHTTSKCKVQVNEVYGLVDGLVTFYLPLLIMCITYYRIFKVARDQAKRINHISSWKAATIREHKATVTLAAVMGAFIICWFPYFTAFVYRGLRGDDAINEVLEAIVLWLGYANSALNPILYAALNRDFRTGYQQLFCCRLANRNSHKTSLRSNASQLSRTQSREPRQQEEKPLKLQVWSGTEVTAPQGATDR

Motilin = target: T8, Motilin (Homo sapiens, UniProt O43193); test: as above; assay type: cell-based
T8 construct: purchased Millipore
T8 sequence (O43193 whole entry): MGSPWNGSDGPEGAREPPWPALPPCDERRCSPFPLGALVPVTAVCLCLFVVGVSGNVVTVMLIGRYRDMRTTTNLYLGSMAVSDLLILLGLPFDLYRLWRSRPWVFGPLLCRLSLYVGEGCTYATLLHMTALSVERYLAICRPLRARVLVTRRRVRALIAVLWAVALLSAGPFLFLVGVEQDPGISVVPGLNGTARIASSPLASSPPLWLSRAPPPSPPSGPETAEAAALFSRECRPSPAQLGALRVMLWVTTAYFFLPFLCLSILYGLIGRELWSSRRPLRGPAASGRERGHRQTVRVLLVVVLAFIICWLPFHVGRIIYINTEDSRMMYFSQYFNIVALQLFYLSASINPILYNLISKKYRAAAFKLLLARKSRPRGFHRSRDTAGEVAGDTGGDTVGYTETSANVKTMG

OPRM1 = target: T9, OPRM1 (Homo sapiens, UniProt P35372); test: as above; assay type: cell-based
T9 construct: Millipore
T9 sequence (P35372 whole entry, species assumed): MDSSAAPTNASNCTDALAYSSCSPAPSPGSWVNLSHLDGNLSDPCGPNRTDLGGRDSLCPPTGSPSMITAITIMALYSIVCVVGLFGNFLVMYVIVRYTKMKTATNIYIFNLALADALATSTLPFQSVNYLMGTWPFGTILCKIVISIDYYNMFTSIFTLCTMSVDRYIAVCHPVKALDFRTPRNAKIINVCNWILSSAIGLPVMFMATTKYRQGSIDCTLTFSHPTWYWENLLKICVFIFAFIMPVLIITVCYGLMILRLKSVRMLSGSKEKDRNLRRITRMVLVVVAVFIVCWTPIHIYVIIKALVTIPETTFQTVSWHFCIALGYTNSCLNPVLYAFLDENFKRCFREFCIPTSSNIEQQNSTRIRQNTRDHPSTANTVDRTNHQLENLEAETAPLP

PK1 = target: T10, PK1 (Homo sapiens, UniProt Q8TCW9); test: as above; assay type: cell-based
T10 construct: Millipore
T10 sequence (Q8TCW9 whole entry): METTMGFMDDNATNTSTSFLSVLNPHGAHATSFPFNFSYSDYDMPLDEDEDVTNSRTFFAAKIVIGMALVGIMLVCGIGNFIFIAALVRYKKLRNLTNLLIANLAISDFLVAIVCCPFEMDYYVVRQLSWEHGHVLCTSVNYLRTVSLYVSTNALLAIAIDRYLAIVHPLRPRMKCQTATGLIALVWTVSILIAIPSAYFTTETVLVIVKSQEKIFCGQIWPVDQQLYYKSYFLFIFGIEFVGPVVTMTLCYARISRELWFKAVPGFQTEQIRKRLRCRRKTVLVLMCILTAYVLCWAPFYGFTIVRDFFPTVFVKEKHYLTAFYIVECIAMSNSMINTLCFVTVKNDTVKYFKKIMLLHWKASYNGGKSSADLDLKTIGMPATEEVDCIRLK

PTH1 = target: T11, PTH1 (Homo sapiens, UniProt Q03431); test: as above; assay type: cell-based
T11 construct: Millipore
T11 sequence (Q03431 27-593): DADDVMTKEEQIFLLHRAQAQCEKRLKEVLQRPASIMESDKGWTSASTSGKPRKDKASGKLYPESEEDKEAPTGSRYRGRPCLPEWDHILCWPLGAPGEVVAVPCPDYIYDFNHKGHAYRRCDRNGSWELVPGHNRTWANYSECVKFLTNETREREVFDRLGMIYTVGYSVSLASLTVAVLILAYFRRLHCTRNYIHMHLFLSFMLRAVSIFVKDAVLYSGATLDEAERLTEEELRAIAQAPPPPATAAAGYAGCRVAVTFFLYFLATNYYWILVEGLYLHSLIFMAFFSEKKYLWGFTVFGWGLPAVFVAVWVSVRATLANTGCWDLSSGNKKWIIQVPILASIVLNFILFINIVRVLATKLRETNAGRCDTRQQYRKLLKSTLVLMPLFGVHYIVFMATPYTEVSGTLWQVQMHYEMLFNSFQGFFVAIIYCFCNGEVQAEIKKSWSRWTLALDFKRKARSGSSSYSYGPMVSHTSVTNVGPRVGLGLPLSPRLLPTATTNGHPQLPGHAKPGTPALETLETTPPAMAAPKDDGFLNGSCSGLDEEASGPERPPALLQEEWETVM

VPAC1 = target: T12, VPAC1 (Homo sapiens, UniProt P32241); test: as above; assay type: cell-based
T12 construct: Millipore
T12 sequence (P32241 31-457): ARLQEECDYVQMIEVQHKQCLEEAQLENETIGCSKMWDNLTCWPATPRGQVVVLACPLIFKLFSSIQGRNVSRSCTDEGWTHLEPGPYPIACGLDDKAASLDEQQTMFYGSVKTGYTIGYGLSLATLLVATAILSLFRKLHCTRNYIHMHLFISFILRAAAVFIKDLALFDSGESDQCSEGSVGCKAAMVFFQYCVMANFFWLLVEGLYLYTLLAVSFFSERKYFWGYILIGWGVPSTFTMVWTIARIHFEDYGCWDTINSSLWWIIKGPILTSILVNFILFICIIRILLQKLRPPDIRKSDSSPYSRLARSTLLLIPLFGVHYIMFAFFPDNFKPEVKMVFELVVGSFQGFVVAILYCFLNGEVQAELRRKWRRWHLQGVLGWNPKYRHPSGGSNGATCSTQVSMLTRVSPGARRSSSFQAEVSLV

[1] = read-out: ANTAGONIST mean % inhibition

CCN1C(=O)COc2nc(-c3ccc(C4(N)CC(O)C4)cc3)c(-c3ccccc3)cc21.O=C(O)C(O)C(O)C(=O)O [VAD044, 6-(4-(1-amino-3-hydroxycyclobutyl)phenyl)-1-ethyl-7-phenyl-1H-pyrido[2,3-b][1,4]oxazin-2(3H)-one L-tartrate] gave an IC50 (full length AKT2) of 95 nM, an inhibition at 10 µM (Cav1.2) of under 25% and an inhibition at 10 µM (KChIP2 (Homo sapiens)) of under 25%. The inhibition at 10 µM (KCNQ1) was under 25%, the IC50 (AKT) was 55 nM and the “impact on the MAPK pathway (p42/p44 phosphorylation)” value (p42/p44 (MAPK pathway)) was “no impact on the MAPK pathway”. The activation at 10 µM (ADRA1D (DELTA2-79); ADRA1D (DELTA2-79), 10 μM, read-out: AGONIST mean % increase in activity) was -0.1%, the inhibition at 10 µM (ADRA1D (DELTA2-79); [1]) was 7% and the activation at 10 µM (BLT1; BLT1, 10 μM, read-out: AGONIST mean % increase in activity) was -0.2%. It also gave an inhibition at 10 µM (BLT1; [1]) of 5.6%, an activation at 10 µM (CB1; CB1, 10 μM, read-out: AGONIST mean % increase in activity) of -0.5% and an inhibition at 10 µM (CB1; [1]) of -4.1%. For the same molecule, the activation at 10 µM (CXCR1; CXCR1, 10 μM, read-out: AGONIST mean % increase in activity) was -0.3%, the inhibition at 10 µM (CXCR1; [1]) was 3.7% and the activation at 10 µM (EP3; EP3, 10 μM, read-out: AGONIST mean % increase in activity) was -0.1%. It also gave an inhibition at 10 µM (EP3; [1]) of 9.2%, an activation at 10 µM (FP; FP, 10 μM, read-out: AGONIST mean % increase in activity) of -0.7% and an inhibition at 10 µM (FP; [1]) of 13.6%. The activation at 10 µM (H2; H2, 10 μM, read-out: AGONIST mean % increase in activity) was -0.2%, the inhibition at 10 µM (H2; [1]) was -1.8% and the activation at 10 µM (Motilin; read-out: AGONIST mean % increase in activity) was -0.3%. It also gave an inhibition at 10 µM (Motilin; [1]) of 50%, an inhibition at 10 µM (OPRM1; OPRM1, read-out: ANTAGONIST mean % inhibition) of 2.4% and an activation at 10 µM (OPRM1; OPRM1, 10 μM, read-out: AGONIST mean % increase in activity) of -2%. For the same molecule, the inhibition at 10 µM (PK1; PK-1, read-out: ANTAGONIST mean % inhibition) was -2.1%, the activation at 10 µM (PK1; PK-1, PK1, 10 μM, read-out: AGONIST mean % increase in activity) was 0% and the activation at 10 µM (PTH1; PTH1, 10 μM, read-out: AGONIST mean % increase in activity) was -1.1%. For the same molecule, the inhibition at 10 µM (PTH1; [1]) was -2.5%, the activation at 10 µM (VPAC1; VPAC1, 10 μM, read-out: AGONIST mean % increase in activity) was -0.7% and the inhibition at 10 µM (VPAC1; [1]) was 8.5%.
